Laboratory results from US11279687B2, “Compounds and compositions for the inhibition of NAMPT” (Valo Health, Inc., priority 2010, dated 2022).
Like-named read-outs stand apart in the source and are kept apart here.

Tests used:
NAMPT = NAMPT (Homo sapiens (Human), UniProt P43490); test: NAMPT biochemical inhibition assay (NMN quantified by mass spectrometry); conditions: NAMPT biochemical inhibition; read-out: Biochem IC50
A2780 cells = test: In-vitro cell proliferation assay (SRB), A2780 cells; format: cell-based; conditions: A2780 cells, 72 hours, SRB, read-out: A2780 IC50;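 also: viable cell number read as SRB absorbance, background from media-only wells subtracted, IC50 interpolated from percent inhibition at two bracketing compound concentrations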

NAMPT, sequence (P43490 whole entry): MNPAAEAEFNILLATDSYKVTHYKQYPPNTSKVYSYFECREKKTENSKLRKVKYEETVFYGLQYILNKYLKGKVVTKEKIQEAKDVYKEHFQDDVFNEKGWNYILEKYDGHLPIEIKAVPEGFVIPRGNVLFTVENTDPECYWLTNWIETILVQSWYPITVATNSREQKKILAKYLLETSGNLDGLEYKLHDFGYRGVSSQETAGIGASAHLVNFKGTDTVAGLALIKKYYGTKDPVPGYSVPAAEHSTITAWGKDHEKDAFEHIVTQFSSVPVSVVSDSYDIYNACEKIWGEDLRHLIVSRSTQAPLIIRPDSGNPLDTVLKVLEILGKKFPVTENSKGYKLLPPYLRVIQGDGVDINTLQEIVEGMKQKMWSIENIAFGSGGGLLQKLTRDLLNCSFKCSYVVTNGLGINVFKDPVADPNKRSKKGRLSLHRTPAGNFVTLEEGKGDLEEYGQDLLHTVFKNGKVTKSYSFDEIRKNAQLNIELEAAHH

| SMILES | IC50 (NAMPT) | IC50 (A2780 cells; Homo sapiens, A2780, 72 h) | IC50 (A2780 cells) |
| --- | --- | --- | --- |
| CC(C)C(=O)Nc1cccc(S(=O)(=O)c2ccc(NC(=O)NCc3cccnc3)cc2)c1 [2-methyl-N-{3-[(4-{[(pyridin-3-ylmethyl)carbamoyl]amino}benzene)sulfonyl]phenylJpropanamide] | 1.2 nM |  | 10.1 nM |
| COc1cccc(C2(N3CCN(S(=O)(=O)c4ccc(NC(=O)NCc5cccnc5)cc4)CC3)CCC(C)CC2)c1 (stereo not drawn) [3-(4-{4-[1-(3-methoxyphenyl)-4-methylcyclohexyl]piperazine-1-sulfonyl}phenyl)-1-(pyridin-3-ylmethyl)urea] | 4 nM | 5 nM |  |
| O=C(NCc1cccnc1)Nc1ccc(S(=O)(=O)N2CCN(C(=O)Cc3ccc(Cl)c(Cl)c3)CC2)cc1 [3-(4-{4-[2-(3,4-dichlorophenyl)acetyl]piperazine-1-sulfonyl[phenyl)-1-(pyridin-3-ylmethyl)urea] | 3.7 nM |  | 1000 to 10000 nM |
| CCN(CC)CCN1CCN(S(=O)(=O)c2ccc(NC(=O)NCc3cccnc3)cc2)CC1 [3-(4-{4-[2-(diethylamino)ethyl]piperazine-1-sulfonyl}phenyl)-1-(pyridin-3-ylmethyl)urea] | 4 nM | 23 nM |  |
| O=C(NCc1cccnc1)Nc1ccc(S(=O)(=O)N2CCN(c3ncc(C(F)(F)F)cc3Cl)CC2)cc1 [3-(4-{4-[3-chloro-5-(trifluoromethyl)pyridin-2-yl]piperazine-1-sulfonyl}phenyl)-1-(pyridin-3-ylmethyl)urea] | 5 nM | 128 nM |  |
| O=C(NCc1cccnc1)Nc1ccc(S(=O)(=O)N2CCC(C(=O)c3ccc(F)cc3)CC2)cc1 [3-(4-{4-[(4-fluorophenyl)carbonyl]piperidine-1-sulfonyl}phenyl)-1-(pyridin-3-ylmethyl)urea] | 10 nM | 206 nM |  |
| O=C(NCc1cccnc1)Nc1ccc(S(=O)(=O)N2CCC(C(=O)N3CCOCC3)CC2)cc1 [3-(4-{4-[(morpholin-4-yl)carbonyl]piperidine-1-sulfonyl}phenyl)-1-(pyridin-3-ylmethyl)urea] | 8 nM | 40 nM |  |
| O=C(NCc1cccnc1)Nc1ccc(S(=O)(=O)N2CCN(C(c3ccc(F)cc3)c3ccc(F)cc3)CC2)cc1 [3-(4-{4-[bis(4-fluorophenyl)methyl]piperazine-1-sulfonyl}phenyl)-1-(pyridin-3-ylmethyl)urea] | 5 nM | 7 nM |  |
| CN1CCCC2(CCCN(S(=O)(=O)c3ccc(NC(=O)NCc4cccnc4)cc3)C2)C1 (stereo not drawn) [3-(4-{8-methyl-2,8-diazaspiro[5.5]undecane-2-sulfonyl}phenyl)-1-(pyridin-3-ylmethyl)urea] | 1 nM | 1 nM |  |
| O=C(NCc1cccnc1)Nc1ccc(S(=O)(=O)Nc2cccnc2Oc2ccc(F)cc2)cc1 [3-(4-{[2-(4-fluorophenoxy)pyridin-3-yl]sulfamoyl}phenyl)-1-(pyridin-3-ylmethyl)urea] | 11 nM | 149 nM |  |
| O=C(NCc1cccnc1)Nc1ccc(S(=O)(=O)Nc2ccccc2OC(F)F)cc1 [3-(4-{[2-(difluoromethoxy)phenyl]sulfamoyl}phenyl)-1-(pyridin-3-ylmethyl)urea] | 0.6 nM | 31 nM |  |
| COCc1ccccc1S(=O)(=O)c1ccc(NC(=O)NCc2cccnc2)cc1 [3-(4-{[2-(methoxymethyl)benzene]sulfonyl}phenyl)-1-(pyridin-3-ylmethyl)urea] | 6 nM | 39 nM |  |
| Cc1nnc(-c2cccc(S(=O)(=O)c3ccc(NC(=O)NCc4cccnc4)cc3)c2)o1 [3-(4-{[3-(5-methyl-1,3,4-oxadiazol-2-yl)benzene]sulfonyl]phenyl)-1-(pyridin-3-ylmethyl)urea] | 7.3 nM |  | 100 to 1000 nM |

Continued, in another order:

| IC50 (NAMPT) | IC50 (A2780 cells; Homo sapiens, A2780, 72 h) | SMILES | IC50 (A2780 cells) |
| --- | --- | --- | --- |
| 8 nM | 7 nM | O=C(NCc1cccnc1)Nc1ccc(S(=O)(=O)Nc2cc(C(F)(F)F)ccc2N2CCOCC2)cc1 [3-(4-{[2-(morpholin-4-yl)-5-(trifluoromethyl)phenyl]sulfamoyl}phenyl)-1-(pyridin-3-ylmethyl)urea] |  |
| 5 nM | 22 nM | O=C(NCc1cccnc1)Nc1ccc(S(=O)(=O)Nc2cc(C(F)(F)F)ccc2N2CCCCC2)cc1 [3-(4-{[2-(piperidin-1-yl)-5-(trifluoromethyl)phenyl]sulfamoyl}phenyl)-1-(pyridin-3-ylmethyl)urea] |  |
| 2 nM |  | CC(C)Oc1ccccc1NS(=O)(=O)c1ccc(NC(=O)NCc2cccnc2)cc1 [3-(4-{[2-(propan-2-yloxy)phenyl]sulfamoyl}phenyl)-1-(pyridin] [3-(4-{[2-(propan-2-yloxy)phenyl]sulfamoyl}phenyl)-1-(pyridin-3-ylmethyl)urea] | 15 nM |
| 6.3 nM | 100 to 1000 nM | O=C(NCc1cccnc1)Nc1ccc(S(=O)(=O)c2cc(OC(F)(F)F)ccc2Cl)cc1 [3-(4-{[2-chloro-5-(trifluoromethoxy)benzene]sulfonyl}phenyl)-1-(pyridin-3-ylmethyl)urea] |  |
| 5 nM | 339 nM | O=C(NCc1cccnc1)Nc1ccc(S(=O)(=O)c2cc(C(F)(F)F)ccc2Cl)cc1 [3-(4-{[2-chloro-5-(trifluoromethyl)benzene]sulfonyl}phenyl)-1-(pyridin-3-ylmethyl)urea] |  |
| 1 nM | 14 nM | O=C(NCc1cccnc1)Nc1ccc(S(=O)(=O)c2ccc(-n3cccn3)cc2F)cc1 [3-(4-{[2-fluoro-4-(1H-pyrazol-1-yl)benzene]sulfonyl}phenyl)-1-(pyridin-3-ylmethyl)urea] |  |
| 2 nM | 3 nM | COc1cc(-n2cccn2)ccc1S(=O)(=O)c1ccc(NC(=O)NCc2cccnc2)cc1 [3-(4-{[2-methoxy-4-(1H-pyrazol-1-yl)benzene]sulfonyl}phenyl)-1-(pyridin-3-ylmethyl)urea] |  |
| 3 nM | 31 nM | COc1ccc(C(C)C)cc1S(=O)(=O)c1ccc(NC(=O)NCc2cccnc2)cc1 [3-(4-{[2-methoxy-5-(propan-2-yl)benzene]sulfonyl}phenyl)-1-(pyridin-3-ylmethyl)urea] |  |
| 1.4 nM | 3.3 nM | COc1ccc(C(F)(F)F)cc1S(=O)(=O)c1ccc(NC(=O)NCc2cccnc2)cc1 [3-(4-{[2-methoxy-5-(trifluoromethyl)benzene]sulfonyl}phenyl)-1-(pyridin-3-ylmethyl)urea] |  |
| 2 nM | 21 nM | Cc1cc(-n2cccn2)ccc1S(=O)(=O)c1ccc(NC(=O)NCc2cccnc2)cc1 [3-(4-{[2-methyl-4-(1H-pyrazol-1-yl)benzene]sulfonyl}phenyl)-1-(pyridin-3-ylmethyl)urea] |  |
| 11.8 nM | 100 to 1000 nM | Cc1cc(C(F)(F)F)ccc1S(=O)(=O)c1ccc(NC(=O)NCc2cccnc2)cc1 [3-(4-{[2-methyl-4-(trifluoromethyl)benzene]sulfonyl}phenyl)-1-(pyridin-3-ylmethyl)urea] |  |
| 3.3 nM | 100 to 1000 nM | CC(C)COc1cccc(S(=O)(=O)c2ccc(NC(=O)NCc3cccnc3)cc2)c1 [3-(4-{[3-(2-methylpropoxy)benzene]sulfonyl]phenyl)-1-(pyridin-3-ylmethyl)urea] |  |
| 1.6 nM | 15.9 nM | Cc1cc(C)n(-c2cccc(S(=O)(=O)c3ccc(NC(=O)NCc4cccnc4)cc3)c2)n1 [3-(4-{[3-(3,5-dimethyl-1H-pyrazol-1-yl)benzene]sulfonyl}phenyl)-1-(pyridin-3-ylmethyl)urea] |  |
| 3.3 nM | 79.3 nM | CN(C)S(=O)(=O)c1cccc(S(=O)(=O)c2ccc(NC(=O)NCc3cccnc3)cc2)c1 [3-(4-{[3-(dimethylsulfamoyl)benzene]sulfonyl]phenyl)-1-(pyridin-3-ylmethyl)urea] |  |
